From patent US20130053435A1, “Methods of Treating Alcohol Intoxication, Alcohol Use Disorders and Alcohol Abuse Which Comprises the Administration of Dihydromyricetin” (priority 2011, published 2013)
Where two headings read alike, the source gives them in different places. Blank lines part the entries; values can stand above or below the compound they belong to.

Experiments:
[1] = tested on: benzodiazepine site of GABAARs; experiment: [3H]flunitrazepam binding in rat cortical membrane homogenates; settings: comparative experiments
Procedure: Standard procedures for preparation of rat cortical membranes for radioligand binding assays were conducted as previously described with modifications in speed and number of centrifugation and washes, and buffer compositions. […] Naïve rat cortex was dissected from brain and homogenized in 0.32 M sucrose, 10 mM HEPES buffer (pH 7.4), and centrifuged at 650×g, 4° C. The subsequent supernatant was centrifuged at 150,000×g to collect the desired membrane-containing pellet. The pellet was washed and centrifuged two more times, first using ice-cold water and second using membrane buffer containing 50 mM KH2PO4, 1 mM EDTA, 2 mM benzamidine HCl, 0.5 mM DTT, 0.1 mM benzethonium HCl, 0.01% bacitracin, 0.2 PMSF (pH 7.4), and the resulting pellet was frozen. On the day of binding assay, the pellet was homogenized in assay buffer containing 50 mM KH2PO4, 1 mM EDTA, 200 mM KCl (pH 7.4) and centrifuged, and resuspended in fresh assay buffer to a final protein concentration of 1 mg/ml. […] Specific binding was defined as the total amount bound (zero unlabeled ligand) minus the binding in the presence of 10 μM final concentration flurazepam (Sigma). Data was analyzed with GraphPad Prism 4.0 Software (San Diego, Calif.) to determine IC50 (One-site competition equation) and Hill slope (Sigmoidal Dose-Response equation). Experiments were conducted in triplicate.

GABAARs [2] = tested on: T1, GABAARs; experiment: Whole-cell patch-clamp, DGCs in hippocampal slices, acute drug application; assay type: cell-based, rat; settings: comparative experiments, rat hippocampal slices
T1 construct: DHM-enhanced Itonic; EC50 on GABAAR-mediated Itonic; other: control (vehicle) cultured neurons, DIV14; other: cultured neurons with EtOH exposure/withdrawal (60 mM, 30 min, 24 hr); EtOH-potentiated Itonic; GABAAR-mediated Ito
Procedure: (§1) Transverse slices (400 μm) of dorsal hippocampus were obtained with a Vibratome (VT 100, Technical Products International, St. Louis, Mo.) and standard techniques known in the art. Slices were continuously perfused with artificial cerebrospinal fluid (ACSF).
(§2) Signals were recorded in voltage-clamp mode with a […] amplifier (Molecular Devices, Sunnyvale, Calif.). Whole cell access resistances were in the range of <25 MΩ before electrical compensation by about 70%. During voltage-clamp recordings, access resistance was monitored by measuring the size of the capacitative transient in response to a 5 mV step command and the data were abandoned if changes >20% were encountered. At least 10 min was allowed for equilibration of the pipette solution with the intracellular milieu before commencing mIPSC recordings.
(§3) Data were analyzed using the Clampfit (Version 9.0, Molecular Devices) and the MiniAnalysis Program (versions 6.0.7, Synaptosoft, Decatur, Ga.).
(§4) The MiniAnalysis program (Synaptosoft, Decatur, Ga.) was used to analyze mIPSCs. Itonic is the averaged baseline currents of a given recording period. Itonic amplitude was calculated as the difference between the holding currents measured before and after picrotoxin (100 μM) or bicuculline (10 μM). […] Briefly, the recordings were low-pass filtered off-line (Clampfit software) at 2 kHz. The mIPSCs were detected (Mini Analysis Program, version 6.0.7) with threshold criteria of 8 pA amplitude and 20 pA*ms charge transfer. The frequency of mIPSCs was determined from all automatically detected events in a given 100 s recording period. For kinetic analysis, only single event mIPSCs with a stable baseline, sharp rising phase (10 to 90% rise time), and exponential decay were chosen during visual inspection of the recording trace. Double and multiple peak mIPSCs were excluded. At least 100 individual mIPSC events were recorded under each experimental condition. The mIPSC kinetics was obtained from analysis of the averaged chosen single events aligned with half rise time in each cell. Decay time constants were obtained by fitting a double exponential to the falling phase of the averaged mIPSCs. Itonic magnitudes were obtained from the averaged baseline current of a given recording period. Itonic amplitude was calculated as the difference between the holding currents measured before and after the application of picrotoxin (50 μM) or bicuculline (10 μM). […] The investigator performing the recordings and mIPSC analysis was blind to the treatment (vehicle, EtOH, E+D, or D) that the rats received.
(§5) As performed previously, whole-cell patch-clamp recordings in dentate gyms granule cells (DGCs) from hippocampal slices in vitro were conducted.

GABAARs [3] = tested on: T2, GABAARs; experiment: as above; assay type: cell-based, rat; settings: in the presence of 60 mM EtOH, rat hippocampal slices
T2 construct: other: in the presence of 60 mM EtOH, rat hippocampal; shift of the GABA concentration-response curve
Procedure: as §1, §2, §3, §4, §5

GABAARs [4] = tested on: T3, GABAARs; experiment: as above; assay type: cell-based, rat; settings: comparative experiments, rat hippocampal slices
T3 construct: DHM-enhanced mIPSCs; other: control (vehicle) cultured neurons, DIV14; other: cultured neurons with EtOH exposure/withdrawal (60 mM, 30 min, 24 hr); EtOH-potentiated mIPSCs; effect on post-synaptic currents (mIPSCs); other: comparative experiments, rat hippocampal slices
Procedure: as §1, §2, §3, §4, §5

GABAARs [5] = tested on: T1, GABAARs; experiment: Whole-cell patch-clamp, cultured hippocampal neurons, acute drug application; assay type: cell-based, rat; settings: DHM 1 μM + 10 μM flumazenil
Procedure: (§6) Hippocampal neurons from embryonic day 18 rats were prepared by papain dissociation (Worthington Biochemical, Lakewood, N.J.) and cultured in neurobasal medium and B27 supplement (Invitrogen). Cultures were kept at 37° C. in a 5% CO2 humidified incubator as described previously. See Shen, Y., et al. (2011) Mol Pharmacol 79:432-442.
(§7) Hippocampal neurons from embryonic day 18 SD rats were prepared by papain dissociation (Worthington Biochemical, Lakewood, N.J.) and cultured in neurobasal medium (Invitrogen) and B27 supplement as previously reported. See Stowell J N and Craig A M (1999) Neuron 22(3):525-536. Briefly, embryos were removed from maternal rats anesthetized with isoflurane and euthanized by decapitation. Hippocampus were dissected and placed in Ca^2+- and Mg^2+-free HEPES-buffered Hank's buffered salt solution (pH 7.45). Tissues were dissociated by papain digestion followed by trituration through a Pasteur pipette and papain inhibitor treatment. Cells were pelleted and resuspended in neurobasal medium containing 2% B27 serum-free supplement, 100 U/ml penicillin, 100 μg/ml streptomycin, 0.5 mM glutamine (all from Invitrogen), and 10 μM glutamate (Sigma).
(§8) Dissociated neurons were then plated at a density of 0.3×10^5 cells/cm^2 onto 12 mm round coverslips in 24-well plates (for patch-clamp recording) and/or at a density of 0.5×10^5 cells/cm^2 in 6-well plates (for Western blot and biotinylation assays) coated with poly-D-lysine (Sigma, 50 μg/ml). Cultures were kept at 37° C. in a 5% CO2 humidified incubator. Thereafter, one third to half of the medium was replaced twice a week with neurobasal culture medium containing 2% B27 supplement, and 0.5 mM glutamine.
(§9) Control neurons were treated with corresponding vehicle as same procedure as EtOH-treated neurons. The concentration of 60 mM EtOH was selected in view of prior experiments. See Liang J et al (2007). Specifically, the concentration of 60 mM EtOH used to treat cultured neurons was chosen to match blood levels measured in adult rats after intoxication with gavage of 5 g/kg, which produced about 60 mM blood peak plasma [EtOH] lasting for about 2 to 3 hr and induced significant plasticity in GABAARs and tolerance.
(§10) Then, immediately before electrophysiological recording, cells grown on coverslips were transferred to a perfusion chamber (Warner Instruments) and visualized with an inverted microscope (TE200, Nikon). Whole-cell patch-clamp recordings were obtained from cultured neurons under voltage-clamp mode at room temperature (22-25° C.), at a holding potential of −70 mV. Cells were perfused with an extracellular solution (137 mM NaCl, 5 mM KCl, 2 mM CaCl2, 1 mM MgCl2, 20 mM glucose and 10 mM HEPES (310-320 Osm, pH adjusted to 7.40 with NaOH)). Glass pipettes were filled with the same internal solution as that in slice recordings, with an input resistance of 4-7 MΩ. GABAAR-mediated mIPSCs were recorded using the same pharmacological method as mentioned above. […] Electrical signals were amplified using a Multiclamp 200 B amplifier (Molecular Devices, USA). After establishing the whole-cell configuration, at least 10 min were allowed to elapse before the application of drug to allow the membrane patch to stabilize and exchange of ions between the recording electrode and the cytosol to occur. Data were acquired with pClamp software (Version 10.0, Molecular Devices, USA), digitized at 20 kHz (Digidata 1440A, Molecular Devices), and analyzed using the Clampfit software (Version 10.0, Molecular Devices) and the Mini Analysis Program (versions 6.0.7, Synaptosoft, Decatur, Ga.) using methods known in the art. See Hamann M, et al. (2002) Neuron 33(4):625-633; Stell B M and Mody I (2002) J Neurosci 22(10): RC223; and Liang (2007).

GABAARs [6] = tested on: T3, GABAARs; experiment: as above; assay type: cell-based, rat; settings: DHM 1 μM + 10 μM flumazenil
Procedure: as §6, §7, §8, §9, §10

[7] = tested on: EtOH-induced LORR in rats
Procedure: See Kakihana R, et al. (1966) Science 154(756):1574-1575). Briefly, after drug injection, rats were placed in the supine position in a V-shaped support. LORR onset time was taken from the endpoint of drug injection (i.p.). LORR duration ended when the animal was able to flip over three times in 30 s. LORR assays were blindly performed. LORR durations were reported as mean (min)±SEM.
Further LORR assays were conducted as follows.
Additional pre-treatment and post-treatment experiments were also conducted.
See Hunkeler, W., et al. (1981) Nature 290:514-516.

binding to GABAARs in [3H]flunitrazepam binding assay [1]: do not bind
Structure (SMILES): O=c1c(-c2ccc(O)cc2)coc2c([C@@H]3O[C@H](CO)[C@@H](O)[C@H](O)[C@H]3O)c(O)ccc12 [puerarin]

binding to GABAARs in [3H]flunitrazepam binding assay [1]: do not bind
Structure (SMILES): O=c1c(O)c(-c2cc(O)c(O)c(O)c2)oc2cc(O)cc(O)c12 [myricetin]

Further lines, the compound ahead of its results:

Structure (SMILES): O=c1c(-c2ccc(O)cc2)coc2cc(O)cc(O)c12 [genistein]
binding to GABAARs in [3H]flunitrazepam binding assay [1]: do not bind

Structure (SMILES): O=c1c(O)c(-c2ccc(O)c(O)c2)oc2cc(O)cc(O)c12 [quercetin, reference compound]
binding to GABAARs in [3H]flunitrazepam binding assay [1]: do not bind | effect on extrasynaptic GABAAR-mediated tonic current (Itonic) (GABAARs [2]): no effect | block of EtOH potentiation of GABAAR-mediated Itonic and mIPSCs (GABAARs [3]): do not | effect on post-synaptic currents (mIPSCs) (GABAARs [4]): no effect

Structure (SMILES): O=c1c(-c2ccc(O)cc2)coc2cc(O)ccc12 [daidzein]
binding to GABAARs in [3H]flunitrazepam binding assay [1]: bind GABAARs

Structure (SMILES): CCOC(=O)c1ncn2c1CN(C)C(=O)c1cc(F)ccc1-2 [flumazenil, reference compound]
DHM-enhanced Itonic (GABAARs [5]): 143.0±3.2% | DHM-enhanced mIPSCs (GABAARs [6]): 125.7±3.9% | LORR duration ([7]; flumazenil 10 mg/kg + DHM 3 mg/kg + EtOH): 56.1 ± 4.6 min | LORR duration ([7]; flumazenil 10 mg/kg + DHM 10 mg/kg + EtOH): 29.3 ± 4.8 min | LORR duration ([7]; flumazenil 10 mg/kg co-injected with EtOH, no DHM): 71.1 ± 4.8 min | LORR duration ([7]; flumazenil 30 mg/kg + DHM 3 mg/kg + EtOH): 58.2 ± 3.9 min

Structure (SMILES): O=c1c(-c2ccc(O)cc2)coc2cc(O[C@@H]3O[C@H](CO)[C@@H](O)[C@H](O)[C@H]3O)ccc12 [daidzin, reference compound]
binding to GABAARs in [3H]flunitrazepam binding assay [1]: bind GABAARs | effect on extrasynaptic GABAAR-mediated tonic current (Itonic) (GABAARs [2]): no effect | block of EtOH potentiation of GABAAR-mediated Itonic and mIPSCs (GABAARs [3]): do not | effect on post-synaptic currents (mIPSCs) (GABAARs [4]): significantly potentiated
